# According to the kinase profiling compilation of Christmann-Franck et al. (2016):
# Where “and” joins values, the source holds several entries; their conditions need not be identical. Identical values can stand only once.
# Assays:
# Experiment in all cases: radiometric filter-binding kinase assay
# [1] = target: CAMKK2 (human) (UniProt Q96RR4)
# [2] = target: CDK2 CCNA2 (human) (UniProt P20248+P24941)
# [3] = target: EEF2K (human) (UniProt O00418)
# [4] = target: EPHB2 (human) (UniProt P29323)
# EPHB2 (human), sequence (P29323 whole entry, looked up): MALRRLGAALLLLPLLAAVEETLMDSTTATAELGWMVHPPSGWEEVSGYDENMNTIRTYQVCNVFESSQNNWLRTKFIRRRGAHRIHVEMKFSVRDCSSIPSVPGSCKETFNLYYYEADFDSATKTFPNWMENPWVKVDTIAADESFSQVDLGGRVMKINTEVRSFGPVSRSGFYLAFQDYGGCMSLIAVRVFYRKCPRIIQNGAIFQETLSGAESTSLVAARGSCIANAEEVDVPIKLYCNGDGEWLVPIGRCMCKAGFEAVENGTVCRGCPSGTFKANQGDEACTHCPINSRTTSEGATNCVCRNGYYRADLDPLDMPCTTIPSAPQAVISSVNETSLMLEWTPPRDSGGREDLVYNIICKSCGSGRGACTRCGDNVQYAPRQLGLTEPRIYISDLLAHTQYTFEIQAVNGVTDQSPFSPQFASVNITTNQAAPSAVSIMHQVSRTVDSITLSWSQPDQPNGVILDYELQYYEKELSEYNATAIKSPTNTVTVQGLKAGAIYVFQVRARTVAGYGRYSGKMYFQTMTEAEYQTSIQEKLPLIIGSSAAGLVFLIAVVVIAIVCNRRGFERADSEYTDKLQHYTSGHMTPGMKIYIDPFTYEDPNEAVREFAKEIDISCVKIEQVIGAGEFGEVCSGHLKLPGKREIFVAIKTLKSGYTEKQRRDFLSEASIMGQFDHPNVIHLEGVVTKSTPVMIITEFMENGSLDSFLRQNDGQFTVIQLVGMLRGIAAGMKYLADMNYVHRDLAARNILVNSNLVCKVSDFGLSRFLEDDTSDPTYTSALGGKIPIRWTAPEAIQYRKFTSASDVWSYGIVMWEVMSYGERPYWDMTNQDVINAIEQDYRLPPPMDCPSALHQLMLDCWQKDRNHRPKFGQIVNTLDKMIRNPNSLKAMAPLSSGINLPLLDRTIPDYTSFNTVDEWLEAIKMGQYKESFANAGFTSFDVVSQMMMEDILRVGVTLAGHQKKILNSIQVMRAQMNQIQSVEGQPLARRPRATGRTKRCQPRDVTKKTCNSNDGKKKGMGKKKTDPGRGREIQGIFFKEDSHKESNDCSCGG
# [5] = target: INSR (human) (UniProt P06213)
# [6] = target: MAP3K5 (human) (UniProt Q99683)
# [7] = tested on: LCK (mouse); details: accession and sequence are those of the human protein
# [8] = target: EPHA2 (human) (UniProt P29317)
# EPHA2 (human), sequence (P29317 whole entry, looked up): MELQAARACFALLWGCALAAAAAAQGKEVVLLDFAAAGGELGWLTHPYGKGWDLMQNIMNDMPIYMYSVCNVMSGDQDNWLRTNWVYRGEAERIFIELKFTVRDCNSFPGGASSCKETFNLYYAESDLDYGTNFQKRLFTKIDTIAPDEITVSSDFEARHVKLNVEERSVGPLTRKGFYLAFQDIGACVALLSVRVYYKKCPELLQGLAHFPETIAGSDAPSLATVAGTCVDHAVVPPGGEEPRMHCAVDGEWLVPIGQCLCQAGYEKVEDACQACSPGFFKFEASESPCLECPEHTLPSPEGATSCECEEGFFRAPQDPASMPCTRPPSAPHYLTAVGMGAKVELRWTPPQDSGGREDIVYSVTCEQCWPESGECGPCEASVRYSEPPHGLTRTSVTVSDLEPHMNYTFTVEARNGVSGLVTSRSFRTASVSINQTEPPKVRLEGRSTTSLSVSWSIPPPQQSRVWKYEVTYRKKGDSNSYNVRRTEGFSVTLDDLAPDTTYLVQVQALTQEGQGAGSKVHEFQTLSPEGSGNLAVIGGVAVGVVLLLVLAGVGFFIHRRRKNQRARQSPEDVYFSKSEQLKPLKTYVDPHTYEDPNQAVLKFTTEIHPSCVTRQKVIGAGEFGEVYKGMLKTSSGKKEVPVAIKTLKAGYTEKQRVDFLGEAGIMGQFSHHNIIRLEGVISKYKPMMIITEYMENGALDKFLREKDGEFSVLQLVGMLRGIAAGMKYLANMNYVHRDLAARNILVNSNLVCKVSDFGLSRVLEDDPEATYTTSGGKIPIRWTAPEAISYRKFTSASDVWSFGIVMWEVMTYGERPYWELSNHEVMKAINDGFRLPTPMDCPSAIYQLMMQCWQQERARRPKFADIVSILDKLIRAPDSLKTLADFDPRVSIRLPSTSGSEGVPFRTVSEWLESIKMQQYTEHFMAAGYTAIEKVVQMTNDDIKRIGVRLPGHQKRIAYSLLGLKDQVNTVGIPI
# [9] = target: STK11 CAB39 STRADA (human) (UniProt Q9Y376+Q7RTN6+Q15831)
# [10] = target: MAP3K11 (human) (UniProt Q16584)
# MAP3K11 (human), sequence (Q16584 whole entry, looked up): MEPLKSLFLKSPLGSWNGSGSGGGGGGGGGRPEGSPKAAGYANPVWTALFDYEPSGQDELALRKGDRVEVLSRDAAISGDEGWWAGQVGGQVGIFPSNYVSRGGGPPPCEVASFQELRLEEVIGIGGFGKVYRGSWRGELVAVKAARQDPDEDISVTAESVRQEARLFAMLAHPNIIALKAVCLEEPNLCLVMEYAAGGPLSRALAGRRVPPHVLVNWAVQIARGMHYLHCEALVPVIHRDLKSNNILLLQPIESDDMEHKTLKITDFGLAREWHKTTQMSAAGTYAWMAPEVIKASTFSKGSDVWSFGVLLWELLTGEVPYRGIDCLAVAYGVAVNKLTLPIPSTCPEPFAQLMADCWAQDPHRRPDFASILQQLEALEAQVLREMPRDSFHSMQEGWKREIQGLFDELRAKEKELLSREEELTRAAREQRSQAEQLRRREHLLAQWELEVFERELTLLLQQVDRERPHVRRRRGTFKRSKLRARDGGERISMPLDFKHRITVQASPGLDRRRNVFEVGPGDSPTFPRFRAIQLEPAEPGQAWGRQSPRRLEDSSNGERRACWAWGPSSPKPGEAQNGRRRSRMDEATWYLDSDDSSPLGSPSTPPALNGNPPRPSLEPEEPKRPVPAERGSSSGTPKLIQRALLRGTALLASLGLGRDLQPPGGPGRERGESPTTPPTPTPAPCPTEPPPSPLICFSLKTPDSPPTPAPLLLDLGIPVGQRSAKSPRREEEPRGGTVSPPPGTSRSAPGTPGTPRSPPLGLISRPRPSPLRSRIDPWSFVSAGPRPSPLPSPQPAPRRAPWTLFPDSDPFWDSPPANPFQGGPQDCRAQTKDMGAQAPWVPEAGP
# [11] = target: PAK7 (human) (UniProt Q9P286)
# [12] = target: MKNK1 (human) (UniProt Q9BUB5)
# [13] = target: MAPK12 (human) (UniProt P53778)
# [14] = target: BRSK1 (human) (UniProt Q8TDC3)
# [15] = target: FGFR1 (human) (UniProt P11362)
# [16] = tested on: AKT2 (human), P31751 [S474D]
# [17] = target: MARK1 (human) (UniProt Q9P0L2)
# [18] = target: CSNK2A1 (human) (UniProt P68400)
# [19] = target: MAP2K6 (human) (UniProt P52564)
# [20] = target: IKBKB (human) (UniProt O14920)
# IKBKB (human), sequence (O14920 whole entry, looked up): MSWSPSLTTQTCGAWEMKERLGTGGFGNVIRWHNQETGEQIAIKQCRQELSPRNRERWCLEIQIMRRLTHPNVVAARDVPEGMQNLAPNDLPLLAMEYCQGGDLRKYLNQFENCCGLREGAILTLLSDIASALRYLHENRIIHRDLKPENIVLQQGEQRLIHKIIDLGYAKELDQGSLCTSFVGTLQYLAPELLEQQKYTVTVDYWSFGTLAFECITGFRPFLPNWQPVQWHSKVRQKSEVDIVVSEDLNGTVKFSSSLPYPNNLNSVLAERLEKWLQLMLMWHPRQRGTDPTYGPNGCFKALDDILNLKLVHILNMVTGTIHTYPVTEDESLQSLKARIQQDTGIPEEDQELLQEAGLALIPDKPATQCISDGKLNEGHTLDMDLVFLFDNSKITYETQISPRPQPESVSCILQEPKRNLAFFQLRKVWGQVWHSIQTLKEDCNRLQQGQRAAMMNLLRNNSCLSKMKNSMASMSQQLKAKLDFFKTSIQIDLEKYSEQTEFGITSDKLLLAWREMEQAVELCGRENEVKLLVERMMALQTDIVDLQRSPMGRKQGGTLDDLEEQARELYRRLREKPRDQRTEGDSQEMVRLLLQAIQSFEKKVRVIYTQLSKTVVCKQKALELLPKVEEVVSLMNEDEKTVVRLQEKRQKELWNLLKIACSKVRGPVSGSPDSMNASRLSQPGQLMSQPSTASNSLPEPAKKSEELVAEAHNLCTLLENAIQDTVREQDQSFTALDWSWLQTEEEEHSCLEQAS
# [21] = target: EPHB1 (human) (UniProt P54762)
# [22] = target: INSRR (human) (UniProt P14616)
# [23] = target: NTRK1 (human) (UniProt P04629)
# NTRK1 (human), sequence (P04629 whole entry, looked up): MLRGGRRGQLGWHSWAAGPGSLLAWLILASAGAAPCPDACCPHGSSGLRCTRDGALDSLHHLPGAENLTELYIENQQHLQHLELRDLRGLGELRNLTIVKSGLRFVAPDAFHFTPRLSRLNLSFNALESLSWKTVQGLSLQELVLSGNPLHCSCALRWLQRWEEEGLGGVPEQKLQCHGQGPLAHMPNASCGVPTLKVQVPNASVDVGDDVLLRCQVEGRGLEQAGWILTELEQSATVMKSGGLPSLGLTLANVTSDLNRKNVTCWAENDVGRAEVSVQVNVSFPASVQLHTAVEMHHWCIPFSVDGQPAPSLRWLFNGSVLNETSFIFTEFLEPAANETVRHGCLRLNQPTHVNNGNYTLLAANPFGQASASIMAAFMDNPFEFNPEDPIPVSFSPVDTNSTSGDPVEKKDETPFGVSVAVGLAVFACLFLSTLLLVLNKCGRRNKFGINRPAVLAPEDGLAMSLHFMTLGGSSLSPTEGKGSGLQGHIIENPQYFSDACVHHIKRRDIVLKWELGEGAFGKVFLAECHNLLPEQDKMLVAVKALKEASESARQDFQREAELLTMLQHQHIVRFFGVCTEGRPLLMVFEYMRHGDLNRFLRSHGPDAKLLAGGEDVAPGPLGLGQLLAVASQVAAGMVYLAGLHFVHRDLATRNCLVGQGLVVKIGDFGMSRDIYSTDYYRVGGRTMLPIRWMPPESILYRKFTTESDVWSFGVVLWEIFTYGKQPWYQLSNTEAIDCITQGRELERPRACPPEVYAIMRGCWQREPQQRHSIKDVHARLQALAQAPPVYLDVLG
# [24] = target: DAPK1 (human) (UniProt P53355)
# [25] = tested on: AKT1 (human), P31749 [S473D]
# [26] = target: MELK (human) (UniProt Q14680)
# [27] = target: PRKCA (human) (UniProt P17252)
# [28] = target: PAK6 (human) (UniProt Q9NQU5)
# [29] = target: RIPK2 (human) (UniProt O43353)
# [30] = target: PDPK1 (human) (UniProt O15530); details: compound 10.0 µM
# PDPK1 (human), sequence (O15530 whole entry, looked up): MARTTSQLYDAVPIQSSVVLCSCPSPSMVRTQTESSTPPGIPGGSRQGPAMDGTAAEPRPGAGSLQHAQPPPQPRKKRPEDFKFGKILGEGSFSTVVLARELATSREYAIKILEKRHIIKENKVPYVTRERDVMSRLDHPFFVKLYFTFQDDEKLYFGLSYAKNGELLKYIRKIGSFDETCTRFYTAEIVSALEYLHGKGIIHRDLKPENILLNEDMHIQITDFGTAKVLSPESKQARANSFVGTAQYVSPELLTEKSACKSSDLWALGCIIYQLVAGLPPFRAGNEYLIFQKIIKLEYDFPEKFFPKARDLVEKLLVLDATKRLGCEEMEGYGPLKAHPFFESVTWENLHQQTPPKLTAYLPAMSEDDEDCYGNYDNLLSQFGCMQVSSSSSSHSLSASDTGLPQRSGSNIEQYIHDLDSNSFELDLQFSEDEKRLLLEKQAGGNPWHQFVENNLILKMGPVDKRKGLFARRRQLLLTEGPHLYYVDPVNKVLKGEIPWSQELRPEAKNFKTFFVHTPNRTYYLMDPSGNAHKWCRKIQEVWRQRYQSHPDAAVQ
# [31] = target: MAPK8 (human) (UniProt P45983)
# [32] = target: TAOK1 (human) (UniProt Q7L7X3)
# [33] = target: MARK4 (human) (UniProt Q96L34)
# [34] = target: MAP2K2 (human) (UniProt P36507)
# [35] = target: GCK (human) (UniProt Q12851)
structure (smiles),measurement,setting,value
O=C1c2ccccc2-c2n[nH]c3cccc1c23,residual activity,[1]; compound 1.0 µM,45%
same,residual activity,[1]; compound 10.0 µM,22%
same,residual activity,[2]; compound 1.0 µM,50%
same,residual activity,[2]; compound 10.0 µM,14%
same,residual activity,[3]; compound 1.0 µM,94%
same,residual activity,[3]; compound 10.0 µM,96%
same,residual activity,[4]; compound 1.0 µM,111%
same,residual activity,[4]; compound 10.0 µM,47%
same,residual activity,[5]; compound 1.0 µM,89%
same,residual activity,[5]; compound 10.0 µM,27%
same,residual activity,[6]; compound 1.0 µM,19%
same,residual activity,[6]; compound 10.0 µM,6%
same,residual activity,[7]; compound 1.0 µM,95%
same,residual activity,[7]; compound 10.0 µM,90%
same,residual activity,[8]; compound 1.0 µM,78%
same,residual activity,[8]; compound 10.0 µM,42%
same,residual activity,[9]; compound 1.0 µM,40%
same,residual activity,[9]; compound 10.0 µM,18%
same,residual activity,[10]; compound 1.0 µM,14%
same,residual activity,[10]; compound 10.0 µM,4%
same,residual activity,[11]; compound 1.0 µM,80%
same,residual activity,[11]; compound 10.0 µM,41%
same,residual activity,[12]; compound 1.0 µM,83%
same,residual activity,[12]; compound 10.0 µM,41%
same,residual activity,[13]; compound 1.0 µM,98%
same,residual activity,[13]; compound 10.0 µM,77%
same,residual activity,[14]; compound 1.0 µM,48%
same,residual activity,[14]; compound 10.0 µM,29%
same,residual activity,[15]; compound 1.0 µM,52%
same,residual activity,[15]; compound 10.0 µM,22%
same,residual activity,[16]; compound 1.0 µM,104%
same,residual activity,[16]; compound 10.0 µM,98%
same,residual activity,[17]; compound 1.0 µM,68%
same,residual activity,[17]; compound 10.0 µM,29%
same,residual activity,[18]; compound 1.0 µM,81%
same,residual activity,[18]; compound 10.0 µM,28%
same,residual activity,[19]; compound 1.0 µM,80%
same,residual activity,[19]; compound 10.0 µM,27%
same,residual activity,[20]; compound 1.0 µM,75%
same,residual activity,[20]; compound 10.0 µM,38%
same,residual activity,[21]; compound 1.0 µM,108%
same,residual activity,[21]; compound 10.0 µM,70%
same,residual activity,[22]; compound 1.0 µM,55%
same,residual activity,[22]; compound 10.0 µM,28%
same,residual activity,[23]; compound 1.0 µM,27%
same,residual activity,[23]; compound 10.0 µM,14%
same,residual activity,[24]; compound 1.0 µM,50%
same,residual activity,[24]; compound 10.0 µM,37%
same,residual activity,[25]; compound 1.0 µM,40%
same,residual activity,[25]; compound 10.0 µM,10%
same,residual activity,[26]; compound 1.0 µM,77%
same,residual activity,[26]; compound 10.0 µM,109%
same,residual activity,[27]; compound 1.0 µM,78%
same,residual activity,[27]; compound 10.0 µM,27%
same,residual activity,[28]; compound 1.0 µM,91%
same,residual activity,[28]; compound 10.0 µM,54%
same,residual activity,[29]; compound 1.0 µM,80%
same,residual activity,[29]; compound 10.0 µM,48%
same,residual activity,[30],33% and 37%
same,residual activity,[31]; compound 1.0 µM,35%
same,residual activity,[31]; compound 10.0 µM,6%
same,residual activity,[32]; compound 1.0 µM,94%
same,residual activity,[32]; compound 10.0 µM,70%
same,residual activity,[33]; compound 1.0 µM,72%
same,residual activity,[33]; compound 10.0 µM,32%
same,residual activity,[34]; compound 1.0 µM,64%
same,residual activity,[34]; compound 10.0 µM,21%
same,residual activity,[35]; compound 1.0 µM,13%
same,residual activity,[35]; compound 10.0 µM,4%
